# Laboratory results: paper PMC3961306, “Comparison of the Cancer Gene Targeting and Biochemical Selectivities of All Targeted Kinase Inhibitors Approved for Clinical Use” (PLoS ONE, 2014)
# Experiments:
# Assay in all cases: Kinase profiling in a biochemical assay panel (mobility shift assays and ELISA), %-inhibition at 1 μM; selectivity entropy
# [1] = target: panel of more than 300 wild-type and mutant kinases (313 kinase panel) (Homo sapiens, UniProt P48730); settings: kinase CK1δ; 1 μM compound
# [2] = target: panel of more than 300 wild-type and mutant kinases (313 kinase panel) (Homo sapiens, UniProt P48729)
# [3] = target: panel of more than 300 wild-type and mutant kinases (313 kinase panel) (Homo sapiens, UniProt P12931); settings: kinase SRC; 1 μM
# [4] = target: panel of more than 300 wild-type and mutant kinases (313 kinase panel) (Homo sapiens, UniProt Q13153)
# [5] = target: panel of more than 300 wild-type and mutant kinases (313 kinase panel) (Homo sapiens, UniProt Q9NQU5)
# [6] = target: panel of more than 300 wild-type and mutant kinases (313 kinase panel) (Homo sapiens, UniProt P29317)
# [7] = target: panel of more than 300 wild-type and mutant kinases (313 kinase panel) (Homo sapiens, UniProt Q9HBH9); settings: kinase MNK2; 1 μM
# [8] = target: panel of more than 300 wild-type and mutant kinases (313 kinase panel) (Homo sapiens, UniProt Q06187)
# [9] = target: panel of more than 300 wild-type and mutant kinases (313 kinase panel) (Homo sapiens, UniProt P42684)
# [10] = target: panel of more than 300 wild-type and mutant kinases (313 kinase panel) (Homo sapiens, UniProt Q13233); settings: kinase MAP3K1; compound at 1 μM
# Chain of panel of more than 300 wild-type and mutant kinases (313 kinase panel) (Homo sapiens, UniProt Q13233) (Q13233 whole entry, change not shown): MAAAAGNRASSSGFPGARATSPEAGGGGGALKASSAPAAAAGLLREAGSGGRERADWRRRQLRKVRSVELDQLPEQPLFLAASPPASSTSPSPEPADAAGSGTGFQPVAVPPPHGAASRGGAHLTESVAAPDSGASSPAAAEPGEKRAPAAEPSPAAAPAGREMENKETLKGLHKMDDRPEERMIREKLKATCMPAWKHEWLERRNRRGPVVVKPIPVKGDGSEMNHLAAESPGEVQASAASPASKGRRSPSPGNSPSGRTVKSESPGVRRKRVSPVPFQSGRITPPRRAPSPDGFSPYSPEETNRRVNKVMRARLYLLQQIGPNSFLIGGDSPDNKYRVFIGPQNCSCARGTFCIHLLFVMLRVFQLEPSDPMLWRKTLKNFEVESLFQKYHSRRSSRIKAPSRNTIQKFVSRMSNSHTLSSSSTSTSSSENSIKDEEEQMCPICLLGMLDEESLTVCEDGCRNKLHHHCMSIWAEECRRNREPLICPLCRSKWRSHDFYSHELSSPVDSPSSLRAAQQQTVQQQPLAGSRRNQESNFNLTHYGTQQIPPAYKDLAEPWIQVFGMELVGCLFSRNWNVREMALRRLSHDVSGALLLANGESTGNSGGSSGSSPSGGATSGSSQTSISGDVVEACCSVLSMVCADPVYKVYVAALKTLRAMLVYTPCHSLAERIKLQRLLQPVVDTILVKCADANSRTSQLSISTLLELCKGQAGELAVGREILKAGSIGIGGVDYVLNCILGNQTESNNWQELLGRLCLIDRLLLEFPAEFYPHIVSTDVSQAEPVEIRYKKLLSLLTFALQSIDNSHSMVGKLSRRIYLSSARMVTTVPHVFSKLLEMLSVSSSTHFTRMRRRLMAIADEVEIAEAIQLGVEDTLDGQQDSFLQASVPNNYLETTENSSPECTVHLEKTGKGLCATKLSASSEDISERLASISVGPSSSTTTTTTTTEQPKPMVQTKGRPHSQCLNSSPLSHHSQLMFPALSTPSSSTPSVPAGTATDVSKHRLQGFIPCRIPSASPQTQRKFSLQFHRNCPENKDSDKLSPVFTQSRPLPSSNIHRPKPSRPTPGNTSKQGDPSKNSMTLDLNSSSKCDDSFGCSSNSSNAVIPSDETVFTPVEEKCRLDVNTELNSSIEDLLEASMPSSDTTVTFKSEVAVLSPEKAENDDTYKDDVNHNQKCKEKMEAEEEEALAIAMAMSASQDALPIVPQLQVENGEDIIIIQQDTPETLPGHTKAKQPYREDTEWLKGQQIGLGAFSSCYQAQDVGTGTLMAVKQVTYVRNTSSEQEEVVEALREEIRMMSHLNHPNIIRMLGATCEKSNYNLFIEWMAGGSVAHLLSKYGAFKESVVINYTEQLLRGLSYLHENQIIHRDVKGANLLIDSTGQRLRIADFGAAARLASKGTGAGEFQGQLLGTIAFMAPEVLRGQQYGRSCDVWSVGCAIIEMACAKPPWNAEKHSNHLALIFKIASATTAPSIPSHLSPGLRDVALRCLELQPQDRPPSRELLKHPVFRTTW
# [11] = target: panel of more than 300 wild-type and mutant kinases (313 kinase panel) (Homo sapiens, UniProt P07947)
# Chain of panel of more than 300 wild-type and mutant kinases (313 kinase panel) (Homo sapiens, UniProt P07947) (P07947 whole entry, change not shown): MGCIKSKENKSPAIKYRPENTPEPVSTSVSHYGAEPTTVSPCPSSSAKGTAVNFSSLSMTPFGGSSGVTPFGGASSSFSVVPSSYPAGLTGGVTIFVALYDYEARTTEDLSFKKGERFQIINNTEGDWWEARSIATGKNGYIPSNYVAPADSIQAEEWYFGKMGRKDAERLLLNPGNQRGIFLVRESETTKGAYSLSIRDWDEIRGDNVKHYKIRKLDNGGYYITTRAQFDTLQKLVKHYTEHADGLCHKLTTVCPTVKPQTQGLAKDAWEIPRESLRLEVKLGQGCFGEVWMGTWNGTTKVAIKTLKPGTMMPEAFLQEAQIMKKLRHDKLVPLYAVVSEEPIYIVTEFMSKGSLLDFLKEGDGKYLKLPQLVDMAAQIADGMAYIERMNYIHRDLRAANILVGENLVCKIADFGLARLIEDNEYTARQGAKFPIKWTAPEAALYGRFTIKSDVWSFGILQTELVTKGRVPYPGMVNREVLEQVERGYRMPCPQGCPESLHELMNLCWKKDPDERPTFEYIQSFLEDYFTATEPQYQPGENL
# [12] = target: T1, panel of more than 300 wild-type and mutant kinases (313 kinase panel) (Homo sapiens, UniProt Q96L34); settings: kinase MARK4; compound at 1 μM
# T1 sequence (Q96L34 1-752): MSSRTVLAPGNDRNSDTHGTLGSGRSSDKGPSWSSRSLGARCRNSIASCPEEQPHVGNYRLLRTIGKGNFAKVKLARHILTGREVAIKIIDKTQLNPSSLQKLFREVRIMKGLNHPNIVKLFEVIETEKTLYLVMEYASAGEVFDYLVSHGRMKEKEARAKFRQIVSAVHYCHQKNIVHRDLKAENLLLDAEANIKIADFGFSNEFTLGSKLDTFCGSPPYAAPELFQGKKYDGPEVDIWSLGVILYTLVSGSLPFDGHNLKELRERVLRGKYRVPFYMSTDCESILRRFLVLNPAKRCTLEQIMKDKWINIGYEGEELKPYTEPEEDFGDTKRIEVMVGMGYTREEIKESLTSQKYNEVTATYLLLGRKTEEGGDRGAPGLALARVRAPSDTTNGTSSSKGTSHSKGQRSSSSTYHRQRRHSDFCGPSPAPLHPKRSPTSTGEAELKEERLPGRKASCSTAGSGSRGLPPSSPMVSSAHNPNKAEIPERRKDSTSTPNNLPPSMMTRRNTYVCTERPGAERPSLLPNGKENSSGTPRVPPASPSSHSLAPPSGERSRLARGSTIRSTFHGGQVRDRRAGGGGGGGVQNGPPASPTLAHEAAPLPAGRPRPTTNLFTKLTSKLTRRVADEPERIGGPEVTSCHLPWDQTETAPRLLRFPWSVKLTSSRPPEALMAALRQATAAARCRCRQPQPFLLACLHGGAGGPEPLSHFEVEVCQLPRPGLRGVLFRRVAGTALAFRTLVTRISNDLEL
# [13] = target: panel of more than 300 wild-type and mutant kinases (313 kinase panel) (Homo sapiens, UniProt P17252); settings: kinase PKCα; 1 μM
# [14] = target: panel of more than 300 wild-type and mutant kinases (313 kinase panel) (Homo sapiens, UniProt Q15349); settings: kinase RSK3; 1 μM
SMILES,"%-inhibition, CK1δ [1] [%]","%-inhibition, CK1α ([2]; kinase CK1α, 1 μM compound) [%]",%-inhibition of SRC [3] [%],"%-inhibition of PAK1 ([4]; kinase PAK1, 1 μM) [%]","%-inhibition of PAK6 ([5]; kinase PAK6, 1 μM) [%]","%-inhibition of EPHA2 ([6]; kinase EPHA2, compound at 1 μM) [%]",%-inhibition of MNK2 [7] [%],"%-inhibition, BTK ([8]; kinase BTK, 1 μM compound) [%]","%-inhibition, ARG ([9]; kinase ARG, 1 μM compound) [%]",%-inhibition of MAP3K1 [10] [%],"%-inhibition of YES ([11]; kinase YES, compound at 1 μM) [%]",%-inhibition of MARK4 [12] [%],%-inhibition of PKCα [13] [%],%-inhibition of RSK3 [14] [%],also measured
CO[C@H]1C[C@@H]2CC[C@@H](C)[C@@](O)(O2)C(=O)C(=O)N2CCCC[C@H]2C(=O)O[C@H]([C@H](C)C[C@@H]2CC[C@@H](OCCO)[C@H](OC)C2)CC(=O)[C@H](C)/C=C(\C)[C@@H](O)[C@@H](OC)C(=O)[C@H](C)C[C@H](C)/C=C/C=C/C=C/1C [everolimus],-4.27,-11,2.64,-5.39,-1.22,-4,1.88,1.16,1.07,7,0,-27,-11,-9,–
Cc1cn(-c2cc(NC(=O)c3ccc(C)c(Nc4nccc(-c5cccnc5)n4)c3)cc(C(F)(F)F)c2)cn1 [nilotinib],-17,–,23,-159,–,–,2,45,–,-18,44,12,6.55,11,"%-inhibition, CK1α ([2]; 1 µM): 2%; %-inhibition of PAK6 ([5]; 1 µM): -102%; %-inhibition of EPHA2 ([6]; 1 µM): 95%; %-inhibition, ARG ([9]; 1 µM): 95%"
Cc1ccc(Nc2nccc(N(C)c3ccc4c(C)n(C)nc4c3)n2)cc1S(N)(=O)=O [pazopanib],1.13,-4,67,-0.494,5.54,15,2.27,13,67,37,68,9,6,7,–
CNC(=O)c1cc(Oc2ccc(NC(=O)Nc3ccc(Cl)c(C(F)(F)F)c3)c(F)c2)ccn1 [regorafenib],-6,-7.56,44,-8,-8,88,73,2.55,35,4,62,-16,-11,45,–
N#CC[C@H](C1CCCC1)n1cc(-c2ncnc3[nH]ccc23)cn1 [ruxolitinib],12,1.86,16,-5.62,3,28,54,–,6,-10,–,53,8,9,"%-inhibition, BTK ([8]; 1 µM): -6%; %-inhibition of YES ([11]; 1 µM): 24%"
CO[C@H]1C[C@@H]2CC[C@@H](C)[C@@](O)(O2)C(=O)C(=O)N2CCCC[C@H]2C(=O)O[C@H]([C@H](C)C[C@@H]2CC[C@@H](OC(=O)C(C)(CO)CO)[C@H](OC)C2)CC(=O)[C@H](C)/C=C(\C)[C@@H](O)[C@@H](OC)C(=O)[C@H](C)C[C@H](C)/C=C/C=C/C=C/1C [temsirolimus],-5.47,-14,0.915,-3.8,-6.47,-5.58,-14,18,-1.55,6,-7,-26,-6,-3,–
CC(=O)Nc1cccc(-n2c(=O)n(C3CC3)c(=O)c3c(Nc4ccc(I)cc4F)n(C)c(=O)c(C)c32)c1 [trametinib],0.365,3,-5.4,–,8,-8.53,-11,18,-4,99,-1.63,-15,-5,-5,%-inhibition of PAK1 ([4]; 1 µM): -1.35%
